Laboratory results: US20230295234A1, “ANTIMICROBIAL PEPTIDOMIMETICS” (SPEXIS AG, priority 2020, published 2023)
Peptide text beside a SMILES is read from it.

Columns and labels:
[1] = tested on: human red blood cells (hRBC); test: Hemolysis of human red blood cells; type: cell-based; conditions: red cells of human, 1 h
Summary of the method: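 Percent hemolysis is OD540 of peptide-treated supernatant relative to water-lysed cells. Each peptide was tested at 200 μg/mL against 20% (v/v) washed human erythrocytes. Incubation was 1 h at 37 °C, 300 rpm.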

[2] = tested on: Escherichia coli MCR-1 Af 45; conditions: Mueller-Hinton broth II, 18-20 hours at 35° C.
Summary of the method: (§1)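 Peptides were made up as 1 mg/mL stocks in sterile water. Colonies in 0.85% saline were set to 0.5 McFarland, then diluted in cation-adjusted Mueller-Hinton II broth to about 5×10^5 CFU/mL. Inoculum was combined with two-fold serial peptide dilutions in water containing 0.002% (final) polysorbate 80.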

[3] = tested on: Escherichia coli ATCC 25922; conditions: ATCC 25922
Summary of the method: as §1

[4] = tested on: Klebsiella pneumoniae SSI3010; conditions: SSI3010
Summary of the method: as §1

| Compound | Hemolysis at 0.2 g/L [1] | Escherichia coli MCR-1 Af 45 MIC [2] | Escherichia coli ATCC 25922 MIC [3] | Klebsiella pneumoniae SSI3010 MIC [4] |
| --- | --- | --- | --- | --- |
| CC[C@H](C)[C@H](NC(=O)[C@@H]1C[C@@H](O)CN1C(=O)[C@@H](N)C(C)C)C(=O)N[C@@H](CC(C)C)C(=O)N[C@@H](Cc1ccc(O)cc1)C(=O)N[C@@H]1C(=O)N[C@@H](CC(N)=O)C(=O)N[C@@H](CCCNC(=N)N)C(=O)N[C@@H](CCN)C(=O)N[C@@H]([C@@H](C)O)C(=O)N[C@H](CCN)C(=O)N[C@@H](CCCCN)C(=O)N[C@H](C(=O)N[C@@H](CCN)C(=O)N[C@@H](CCCNC(=N)N)C(=O)N[C@@H](Cc2ccc(O)cc2)C(=O)O)CSSC1(C)C [Example 156] (HELM PEPTIDE1{V.[Hyp].I.L.Y.[Pen].N.R.[Dab].T.[NCC[C@@H](N[*:1])C(=O)[*:2]].K.C.[Dab].R.Y}$PEPTIDE1,PEPTIDE1,6:R3-13:R3$$$V2.0) | 0% | 0.25 µg/mL | 0.25 µg/mL | 0.5 µg/mL |
| CC[C@H](C)[C@H](NC(=O)[C@@H]1C[C@@H](O)CN1C(=O)[C@@H](N)C(C)C)C(=O)N[C@@H](CC(N)=O)C(=O)N[C@@H](Cc1ccc(O)cc1)C(=O)N[C@@H]1C(=O)N[C@@H](CC(N)=O)C(=O)N[C@@H](CCCNC(=N)N)C(=O)N[C@@H](CCN)C(=O)N[C@@H]([C@@H](C)O)C(=O)N[C@H](CCN)C(=O)N[C@@H](CCCCN)C(=O)N[C@H](C(=O)N[C@@H](CCN)C(=O)N[C@@H](CCCNC(=N)N)C(=O)N[C@@H](Cc2ccc(O)cc2)C(=O)O)CSSC1(C)C [Example 157] (HELM PEPTIDE1{V.[Hyp].I.N.Y.[Pen].N.R.[Dab].T.[NCC[C@@H](N[*:1])C(=O)[*:2]].K.C.[Dab].R.Y}$PEPTIDE1,PEPTIDE1,6:R3-13:R3$$$V2.0) | 0% | 0.125 µg/mL | 0.125 µg/mL | 0.5 µg/mL |
| CC[C@H](C)[C@H](NC(=O)[C@@H]1C[C@@H](O)CN1C(=O)[C@@H](N)C(C)C)C(=O)N[C@@H](CCN)C(=O)N[C@@H](Cc1ccc(O)cc1)C(=O)N[C@@H]1C(=O)N[C@@H](CC(N)=O)C(=O)N[C@@H](CCCNC(=N)N)C(=O)N[C@@H](CCN)C(=O)N[C@@H]([C@@H](C)O)C(=O)N[C@H](CCN)C(=O)N[C@@H](CCCCN)C(=O)N[C@H](C(=O)N[C@@H](CCN)C(=O)N[C@@H](CCCNC(=N)N)C(=O)N[C@@H](Cc2ccc(O)cc2)C(=O)O)CSSC1(C)C [Example 158] (HELM PEPTIDE1{V.[Hyp].I.[Dab].Y.[Pen].N.R.[Dab].T.[NCC[C@@H](N[*:1])C(=O)[*:2]].K.C.[Dab].R.Y}$PEPTIDE1,PEPTIDE1,6:R3-13:R3$$$V2.0) | 0% | 0.125 µg/mL | 0.125 µg/mL | 0.5 µg/mL |
| CC[C@H](C)[C@H](NC(=O)[C@@H]1C[C@@H](O)CN1C(=O)[C@@H](N)C(C)C)C(=O)N[C@@H](CCCCN)C(=O)N[C@@H](Cc1ccc(O)cc1)C(=O)N[C@@H]1C(=O)N[C@@H](CC(N)=O)C(=O)N[C@@H](CCCNC(=N)N)C(=O)N[C@@H](CCN)C(=O)N[C@@H]([C@@H](C)O)C(=O)N[C@H](CCN)C(=O)N[C@@H](CCCCN)C(=O)N[C@H](C(=O)N[C@@H](CCN)C(=O)N[C@@H](CCCNC(=N)N)C(=O)N[C@@H](Cc2ccc(O)cc2)C(=O)O)CSSC1(C)C [Example 159] (HELM PEPTIDE1{V.[Hyp].I.K.Y.[Pen].N.R.[Dab].T.[NCC[C@@H](N[*:1])C(=O)[*:2]].K.C.[Dab].R.Y}$PEPTIDE1,PEPTIDE1,6:R3-13:R3$$$V2.0) | 0% | 0.25 µg/mL | 0.125 µg/mL | 0.5 µg/mL |
| CC[C@H](C)[C@H](NC(=O)[C@@H]1C[C@@H](O)CN1C(=O)[C@@H](N)C(C)C)C(=O)N[C@H](C(=O)N[C@@H](Cc1c[nH]c2ccccc12)C(=O)N[C@@H]1C(=O)N[C@@H](CC(N)=O)C(=O)N[C@@H](CCCNC(=N)N)C(=O)N[C@@H](CCN)C(=O)N[C@@H]([C@@H](C)O)C(=O)N[C@H](CCN)C(=O)N[C@@H](CCCCN)C(=O)N[C@H](C(=O)N[C@@H](CCN)C(=O)N[C@@H](CCCNC(=N)N)C(=O)N[C@@H](Cc2ccc(O)cc2)C(=O)O)CSSC1(C)C)[C@@H](C)O [Example 160] (HELM PEPTIDE1{V.[Hyp].I.T.W.[Pen].N.R.[Dab].T.[NCC[C@@H](N[*:1])C(=O)[*:2]].K.C.[Dab].R.Y}$PEPTIDE1,PEPTIDE1,6:R3-13:R3$$$V2.0) | 0% | 0.25 µg/mL | 0.25 µg/mL | 0.5 µg/mL |
| CC[C@H](C)[C@H](NC(=O)[C@@H]1C[C@@H](O)CN1C(=O)[C@@H](N)C(C)C)C(=O)N[C@H](C(=O)N[C@@H](Cc1ccc(O)cc1)C(=O)N[C@@H]1C(=O)N[C@@H](C)C(=O)N[C@@H](CCCNC(=N)N)C(=O)N[C@@H](CCN)C(=O)N[C@@H]([C@@H](C)O)C(=O)N[C@H](CCN)C(=O)N[C@@H](CCCCN)C(=O)N[C@H](C(=O)N[C@@H](CCN)C(=O)N[C@@H](CCCNC(=N)N)C(=O)N[C@@H](Cc2ccc(O)cc2)C(=O)O)CSSC1(C)C)[C@@H](C)O [Example 161] (HELM PEPTIDE1{V.[Hyp].I.T.Y.[Pen].A.R.[Dab].T.[NCC[C@@H](N[*:1])C(=O)[*:2]].K.C.[Dab].R.Y}$PEPTIDE1,PEPTIDE1,6:R3-13:R3$$$V2.0) | 0% | 0.125 µg/mL | 0.25 µg/mL | 0.5 µg/mL |
| CC[C@H](C)[C@H](NC(=O)[C@@H]1C[C@@H](O)CN1C(=O)[C@@H](N)C(C)C)C(=O)N[C@H](C(=O)N[C@@H](Cc1ccc(O)cc1)C(=O)N[C@@H]1C(=O)N[C@@H](CC(C)C)C(=O)N[C@@H](CCCNC(=N)N)C(=O)N[C@@H](CCN)C(=O)N[C@@H]([C@@H](C)O)C(=O)N[C@H](CCN)C(=O)N[C@@H](CCCCN)C(=O)N[C@H](C(=O)N[C@@H](CCN)C(=O)N[C@@H](CCCNC(=N)N)C(=O)N[C@@H](Cc2ccc(O)cc2)C(=O)O)CSSC1(C)C)[C@@H](C)O [Example 162] (HELM PEPTIDE1{V.[Hyp].I.T.Y.[Pen].L.R.[Dab].T.[NCC[C@@H](N[*:1])C(=O)[*:2]].K.C.[Dab].R.Y}$PEPTIDE1,PEPTIDE1,6:R3-13:R3$$$V2.0) | 0% | 0.125 µg/mL | 0.25 µg/mL | 0.25 µg/mL |
| CC[C@H](C)[C@@H]1NC(=O)[C@@H](NC(=O)[C@H](Cc2ccc(O)cc2)NC(=O)[C@@H](NC(=O)[C@@H](NC(=O)[C@@H]2C[C@@H](O)CN2C(=O)[C@@H](N)C(C)C)[C@@H](C)CC)[C@@H](C)O)C(C)(C)SSC[C@@H](C(=O)N[C@@H](CCN)C(=O)N[C@@H](CCCNC(=N)N)C(=O)N[C@@H](Cc2ccc(O)cc2)C(=O)O)NC(=O)[C@H](CCCCN)NC(=O)[C@@H](CCN)NC(=O)[C@H]([C@@H](C)O)NC(=O)[C@H](CCN)NC(=O)[C@H](CCCNC(=N)N)NC1=O [Example 163] (HELM PEPTIDE1{V.[Hyp].I.T.Y.[Pen].I.R.[Dab].T.[NCC[C@@H](N[*:1])C(=O)[*:2]].K.C.[Dab].R.Y}$PEPTIDE1,PEPTIDE1,6:R3-13:R3$$$V2.0) | 0% | 0.125 µg/mL | 0.125 µg/mL | 0.5 µg/mL |
| CC[C@H](C)[C@H](NC(=O)[C@@H]1C[C@@H](O)CN1C(=O)[C@@H](N)C(C)C)C(=O)N[C@H](C(=O)N[C@@H](Cc1ccc(O)cc1)C(=O)N[C@@H]1C(=O)N[C@@H](CO)C(=O)N[C@@H](CCCNC(=N)N)C(=O)N[C@@H](CCN)C(=O)N[C@@H]([C@@H](C)O)C(=O)N[C@H](CCN)C(=O)N[C@@H](CCCCN)C(=O)N[C@H](C(=O)N[C@@H](CCN)C(=O)N[C@@H](CCCNC(=N)N)C(=O)N[C@@H](Cc2ccc(O)cc2)C(=O)O)CSSC1(C)C)[C@@H](C)O [Example 164] (HELM PEPTIDE1{V.[Hyp].I.T.Y.[Pen].S.R.[Dab].T.[NCC[C@@H](N[*:1])C(=O)[*:2]].K.C.[Dab].R.Y}$PEPTIDE1,PEPTIDE1,6:R3-13:R3$$$V2.0) | 0% | 0.25 µg/mL | 0.125 µg/mL | 0.25 µg/mL |
| CC[C@H](C)[C@H](NC(=O)[C@@H]1C[C@@H](O)CN1C(=O)[C@@H](N)C(C)C)C(=O)N[C@H](C(=O)N[C@@H](Cc1ccc(O)cc1)C(=O)N[C@@H]1C(=O)N[C@@H]([C@@H](C)O)C(=O)N[C@@H](CCCNC(=N)N)C(=O)N[C@@H](CCN)C(=O)N[C@@H]([C@@H](C)O)C(=O)N[C@H](CCN)C(=O)N[C@@H](CCCCN)C(=O)N[C@H](C(=O)N[C@@H](CCN)C(=O)N[C@@H](CCCNC(=N)N)C(=O)N[C@@H](Cc2ccc(O)cc2)C(=O)O)CSSC1(C)C)[C@@H](C)O [Example 165] (HELM PEPTIDE1{V.[Hyp].I.T.Y.[Pen].T.R.[Dab].T.[NCC[C@@H](N[*:1])C(=O)[*:2]].K.C.[Dab].R.Y}$PEPTIDE1,PEPTIDE1,6:R3-13:R3$$$V2.0) | 0% | 0.125 µg/mL | 0.125 µg/mL | 0.5 µg/mL |
